# In patent publication US20240158446A1, “CYCLIC COMPOUND HAVING SELECTIVE INHIBITORY ACTION ON KRAS OVER HRAS AND NRAS” (CHUGAI SEIYAKU KABUSHIKI KAISHA, priority 2021, published 2024):
# Where two headings read alike, the source gives them in different places.
# Columns and labels:
# [1] = biological target: GDP-bound KRAS wild-type protein (Homo sapiens, UniProt P01116); test: Binding to KRAS by surface plasmon resonance (SPR), Single Cycle Kinetics; details: SPR Single Cycle Kinetics, GDP-bound KRAS wild-type protein, 1:1 binding model
# Sequence of GDP-bound KRAS wild-type protein (P01116 whole entry): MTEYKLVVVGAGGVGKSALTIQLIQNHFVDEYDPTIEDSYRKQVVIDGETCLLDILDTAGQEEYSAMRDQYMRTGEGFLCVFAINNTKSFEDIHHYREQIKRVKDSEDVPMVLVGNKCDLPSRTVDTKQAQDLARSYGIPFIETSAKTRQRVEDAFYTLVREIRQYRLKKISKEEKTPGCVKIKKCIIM
# [2] = biological target: GDP-bound HRAS wild-type protein (Homo sapiens, UniProt P01112); test: Binding to HRAS by surface plasmon resonance (SPR), Single Cycle Kinetics; details: SPR KD ratio HRAS/KRAS, class symbols
# Sequence of GDP-bound HRAS wild-type protein (P01112 whole entry): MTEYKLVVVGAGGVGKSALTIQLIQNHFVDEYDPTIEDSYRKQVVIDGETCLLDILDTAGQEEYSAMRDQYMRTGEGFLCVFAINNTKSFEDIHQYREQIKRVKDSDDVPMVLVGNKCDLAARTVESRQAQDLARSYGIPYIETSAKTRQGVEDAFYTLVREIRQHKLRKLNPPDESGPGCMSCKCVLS
# [3] = system: human lung cancer strain NCI-H441;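 also: cell proliferation inhibition after four days measured by CellTiter-Glo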
# [4] = biological target: GDP-bound NRAS wild-type protein (Homo sapiens, UniProt P01111); test: Binding to NRAS by surface plasmon resonance (SPR), Single Cycle Kinetics; details: SPR KD ratio NRAS/KRAS, class symbols
# Sequence of GDP-bound NRAS wild-type protein (P01111 whole entry): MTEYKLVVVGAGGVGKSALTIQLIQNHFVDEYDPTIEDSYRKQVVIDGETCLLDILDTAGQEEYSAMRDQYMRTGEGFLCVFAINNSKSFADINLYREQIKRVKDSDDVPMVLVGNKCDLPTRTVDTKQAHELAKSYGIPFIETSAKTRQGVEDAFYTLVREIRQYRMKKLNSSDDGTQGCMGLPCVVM
Kd ([1]; read-out: KRAS KD) [M],IC50 [3] [nM],Structure (SMILES),HRAS/KRAS (ratio of KD value with respect to GDP-bound HRAS wild-type protein to KD value with respect to KRAS) [2],NRAS/KRAS (ratio of KD value with respect to GDP-bound NRAS wild-type protein to KD value with respect to KRAS) [4],Kd ([1]; KRAS KD (M)) [M]
8.7e-10,22.1,CCC[C@H]1C(=O)N[C@@H]([C@@H](C)CC)C(=O)N(C2CC2)CC(=O)N(C)[C@H]2C/C=C\CCN(C2=O)[C@@H](Cc2ccc(C(F)(F)F)cc2)C(=O)N(C)CC(=O)N[C@@H](CCc2ccc(Cl)c(Cl)c2)C(=O)N2C[C@H](OCC)C[C@H]2C(=O)NC2(CC(C)(C)C2)C(=O)N(C)[C@@H](CC(C)(C)C)C(=O)N(C)[C@H](C(=O)N(C)C)CC(=O)N1C [PP2749],A (a compound having 10 or more and less than 20 is denoted as A),AA (a compound having 20 or more is denoted as AA),
8.5e-10,39.3,CCC[C@H]1C(=O)N[C@@H]([C@@H](C)CC)C(=O)N(C)CC(=O)N(C)[C@H]2C/C=C\CCN(C2=O)[C@@H](Cc2ccc(C)cc2)C(=O)N(C)CC(=O)N[C@@H](CCc2cc(F)c(C(F)(F)F)c(F)c2)C(=O)N2C[C@H](OCC)C[C@H]2C(=O)NC2(CC(C)(C)C2)C(=O)N(C)[C@@H](CC2CCC2)C(=O)N(C)[C@H](C(=O)N(C)C)CC(=O)N1C [PP2751],A (a compound having 10 or more and less than 20 is denoted as A),A (a compound having 10 or more and less than 20 is denoted as A),
1.2e-09,70.3,CCCOC[C@H]1C(=O)N[C@@H]([C@@H](C)CC)C(=O)N(C)CC(=O)N(C)[C@H]2C/C=C\CCN(C2=O)[C@@H](Cc2ccc(C)cc2)C(=O)N(C)CC(=O)N[C@@H](CCc2cc(F)c(C(F)(F)F)c(F)c2)C(=O)N2C[C@H](OCC)C[C@H]2C(=O)NC2(CC(C)(C)C2)C(=O)N(C)[C@@H](CC2CCC2)C(=O)N(C)[C@H](C(=O)N(C)C)CC(=O)N1C [PP2752],A (a compound having 10 or more and less than 20 is denoted as A),A (a compound having 10 or more and less than 20 is denoted as A),
9.7e-10,52,CCC[C@H]1C(=O)N[C@@H]([C@@H](C)CC)C(=O)N(C)CC(=O)N(C)[C@H]2C/C=C\CCN(C2=O)[C@@H](Cc2ccc(C)cc2)C(=O)N(C)CC(=O)N[C@@H](CCc2ccc(C(F)(F)F)c(OC)c2)C(=O)N2C[C@H](OCC)C[C@H]2C(=O)NC2(CC(C)(C)C2)C(=O)N(C)[C@@H](CC2CCC2)C(=O)N(C)[C@H](C(=O)N(C)C)CC(=O)N1C [PP2753],B (a compound having 3 or more and less than 10 is denoted as B),A (a compound having 10 or more and less than 20 is denoted as A),
5.6e-10,35.7,CCC[C@H]1C(=O)N[C@@H]([C@@H](C)CC)C(=O)N(C)CC(=O)N(C)[C@H]2C/C=C\CCN(C2=O)[C@@H](Cc2ccc(C)cc2)C(=O)N(C)CC(=O)N[C@@H](CCc2ccc(Cl)c(Cl)c2)C(=O)N2C[C@H](OCC)C[C@H]2C(=O)NC2(CC(C)(C)C2)C(=O)N(C)[C@@H](CC2CCC2)C(=O)N(C)[C@H](C(=O)N(C)C)CC(=O)N1C [PP2755],A (a compound having 10 or more and less than 20 is denoted as A),A (a compound having 10 or more and less than 20 is denoted as A),
2.8e-09,68.4,CCC[C@H]1C(=O)N[C@@H]([C@@H](C)CC)C(=O)N(C2CC2)CC(=O)N(C)[C@H]2C/C=C\CCN(C2=O)[C@@H](Cc2ccc(C)cc2)C(=O)N(C)CC(=O)N[C@@H](CCc2ccc(Cl)c(Cl)c2)C(=O)N2C[C@H](OCC)C[C@H]2C(=O)NC2(CC(C)(C)C2)C(=O)N(C)[C@@H](CC2CCC2)C(=O)N(C)[C@H](C(=O)N(C)C)CC(=O)N1C [PP2761],A (a compound having 10 or more and less than 20 is denoted as A),A (a compound having 10 or more and less than 20 is denoted as A),
2.9e-09,122,CCOC[C@H]1C(=O)N[C@@H]([C@@H](C)CC)C(=O)N(C2CC2)CC(=O)N(C)[C@H]2C/C=C\CCN(C2=O)[C@@H](Cc2ccc(C)cc2)C(=O)N(C)CC(=O)N[C@@H](CCc2ccc(Cl)c(Cl)c2)C(=O)N2C[C@H](OCC)C[C@H]2C(=O)NC2(CC(C)(C)C2)C(=O)N(C)[C@@H](CC2CCC2)C(=O)N(C)[C@H](C(=O)N(C)C)CC(=O)N1C [PP2762],A (a compound having 10 or more and less than 20 is denoted as A),A (a compound having 10 or more and less than 20 is denoted as A),
8.6e-10,71.9,CCOC[C@H]1C(=O)N[C@@H]([C@@H](C)CC)C(=O)N(C)CC(=O)N(C)[C@H]2C/C=C\CCN(C2=O)[C@@H](Cc2ccc(C(F)(F)F)cc2)C(=O)N(C)CC(=O)N[C@@H](CCc2cc(F)c(C(F)(F)F)c(F)c2)C(=O)N2C[C@H](OCC)C[C@H]2C(=O)NC2(CC(C)(C)C2)C(=O)N(C)[C@@H](CC2CCC2)C(=O)N(C)[C@H](C(=O)N(C)C)CC(=O)N1C [PP2763],A (a compound having 10 or more and less than 20 is denoted as A),A (a compound having 10 or more and less than 20 is denoted as A),
8.5e-10,55.8,CCC[C@H]1C(=O)N[C@@H]([C@@H](C)CC)C(=O)N(C)CC(=O)N(C)[C@H]2C/C=C\CCN(C2=O)[C@@H](Cc2ccc(C(F)(F)F)cc2)C(=O)N(C)CC(=O)N[C@@H](CCc2ccc(C(F)(F)F)c(OC)c2)C(=O)N2C[C@H](OCC)C[C@H]2C(=O)NC2(CC(C)(C)C2)C(=O)N(C)[C@@H](CC2CCC2)C(=O)N(C)[C@H](C(=O)N(C)C)CC(=O)N1C [PP2764],A (a compound having 10 or more and less than 20 is denoted as A),A (a compound having 10 or more and less than 20 is denoted as A),
7e-10,180,CCOC[C@H]1C(=O)N[C@@H]([C@@H](C)CC)C(=O)N(C)CC(=O)N(C)[C@H]2C/C=C\CCN(C2=O)[C@@H](Cc2ccc(C(F)(F)F)cc2)C(=O)N(C)CC(=O)N[C@@H](CCc2ccc(C(F)(F)F)c(OC)c2)C(=O)N2C[C@H](OCC)C[C@H]2C(=O)NC2(CC(C)(C)C2)C(=O)N(C)[C@@H](CC2CCC2)C(=O)N(C)[C@H](C(=O)N(C)C)CC(=O)N1C [PP2765],A (a compound having 10 or more and less than 20 is denoted as A),A (a compound having 10 or more and less than 20 is denoted as A),
5.2e-10,26,CCC[C@H]1C(=O)N[C@@H]([C@@H](C)CC)C(=O)N(C)CC(=O)N(C)[C@H]2C/C=C\CCN(C2=O)[C@@H](Cc2ccc(C(F)(F)F)cc2)C(=O)N(C)CC(=O)N[C@@H](CCc2ccc(Cl)c(Cl)c2)C(=O)N2C[C@H](OCC)C[C@H]2C(=O)NC2(CC(C)(C)C2)C(=O)N(C)[C@@H](CC2CCC2)C(=O)N(C)[C@H](C(=O)N(C)C)CC(=O)N1C [PP2766],A (a compound having 10 or more and less than 20 is denoted as A),A (a compound having 10 or more and less than 20 is denoted as A),
4.9e-10,62.6,CCOC[C@H]1C(=O)N[C@@H]([C@@H](C)CC)C(=O)N(C)CC(=O)N(C)[C@H]2C/C=C\CCN(C2=O)[C@@H](Cc2ccc(C(F)(F)F)cc2)C(=O)N(C)CC(=O)N[C@@H](CCc2ccc(Cl)c(Cl)c2)C(=O)N2C[C@H](OCC)C[C@H]2C(=O)NC2(CC(C)(C)C2)C(=O)N(C)[C@@H](CC2CCC2)C(=O)N(C)[C@H](C(=O)N(C)C)CC(=O)N1C [PP2767],A (a compound having 10 or more and less than 20 is denoted as A),A (a compound having 10 or more and less than 20 is denoted as A),
5.5e-09,120,CCC[C@H]1C(=O)N[C@@H]([C@@H](C)CC)C(=O)N(C2CC2)CC(=O)N(C)[C@H]2C/C=C\CCN(C2=O)[C@@H](Cc2ccc(C(F)(F)F)cc2)C(=O)N(C)CC(=O)N[C@@H](CCc2cc(F)c(C(F)(F)F)c(F)c2)C(=O)N2C[C@H](OCC)C[C@H]2C(=O)NC2(CC(C)(C)C2)C(=O)N(C)[C@@H](CC2CCC2)C(=O)N(C)[C@H](C(=O)N(C)C)CC(=O)N1C [PP2768],A (a compound having 10 or more and less than 20 is denoted as A),A (a compound having 10 or more and less than 20 is denoted as A),

Structure (SMILES),Kd ([1]; read-out: KRAS KD) [M],IC50 [3] [nM],HRAS/KRAS (ratio of KD value with respect to GDP-bound HRAS wild-type protein to KD value with respect to KRAS) [2],NRAS/KRAS (ratio of KD value with respect to GDP-bound NRAS wild-type protein to KD value with respect to KRAS) [4],Kd ([1]; KRAS KD (M)) [M]
CCC[C@H]1C(=O)N[C@@H]([C@@H](C)CC)C(=O)N(C)CC(=O)N(C)[C@H]2C/C=C\CCN(C2=O)[C@@H](Cc2ccc(C(F)(F)F)cc2)C(=O)N(C)CC(=O)N[C@@H](CCc2cc(Cl)c3c(ccn3C)c2)C(=O)N2C[C@H](OCC)C[C@H]2C(=O)NC2(CC(C)(C)C2)C(=O)N(C)[C@@H](C(CC)CC)C(=O)N(C)[C@H](C(=O)N(C)C)CC(=O)N1C [PP2896],,79.3,A (a compound having 10 or more and less than 20 is denoted as A),A (a compound having 10 or more and less than 20 is denoted as A),2.8e-09
